According to EP0489933A1, “BILE ALCOHOL AND DRUG CONTAINING THE SAME AS ACTIVE INGREDIENT” (TSUMURA CO., LTD., priority 1990, dated 1992):

Assays:
male rats of SD line = test: High cholesterol feed: blood viscosity, serum total cholesterol, triglyceride, GOT; assay type: in vivo; details: 100 mg/kg/day, p.o., 4 days
Description: In this experiment, 5-week-old male rats of SD line (5 individuals per one group) were used after rearing them for 1 week using normal feed, and each compound of the present invention (100 mg/kg) was administered orally once a day for 4 days. Simultaneously with the commencement of the administration, the normal feed was replaced by a high cholesterol feed. After completion of the administration, they were subjected to fasting treatment for 24 hours. Thereafter, each rat was subjected to ventrotomy under anesthesia with Nembutal® (Dainabot Co., Ltd.; 50 mg/kg, i.p.) to collect blood from abdominal aorta, and the collected blood sample was checked for its blood viscosity using a viscometer (Biolyzer, Tokyo Keiki Co., Ltd.). At the same time, total cholesterol (Wako Pure Chemical Industries, Ltd.; Cholesterol E-test wako), triglyceride (Wako Pure Chemical Industries, Ltd.; Triglyceride G-test wako) and GOT (Wako Pure Chemical Industries, Ltd.; GOT-UV test-wako) in serum samples were measured.

male rats of SHR line = test: Blood pressure in SHR rats; assay type: in vivo; details: 10 mg/kg, p.o., 2 weeks
Description: In this experiment, 12-week-old male rats of SHR line (5 to 6 individuals per one group) were used after rearing them for 1 week with normal feed. Oral administration of each test drug has been carried out for 2 weeks and then blood pressure (mmHg) was measured using a small animal hemomanometer (UR-1000).

Qualitative solubility = assay type: physicochemical
[1] = Blood plasma clotting time after oral administration; assay type: in vivo, male rats of Wistar line; details: 30 mg/kg, p.o.; blood collected 90 minutes after administration; calcium chloride, 37°C
Description: In this experiment, 9-week-old male rats of Wistar line (5 to 6 individuals per one group) were used after rearing them for 1 week with normal feed. After 24 hours of fasting, each test drug was administered orally and, 90 minutes thereafter, blood sample was collected from lower abdominal vena cava of each rat under anesthesia with Nembutal® (1 ml/kg, i.p.). Blood samples obtained in this way were checked for their blood clotting time and erythrocyte deformability.
Measuring procedures are as follows.
Blood clotting time ... Collected blood sample is centrifuged at 3,500 rpm for 10 minutes to obtain blood plasma. The blood plasma is pre-incubated for 1 minute in a water bath controlled at 37°C, mixed with calcium chloride and then shaken at 20 second intervals to measure a time required for its clotting.

SMILES	GOT ±S.E. (male rats of SD line) [IU/ℓ]	Total Cholesterol ±S.E. (male rats of SD line) [mg/dL]	Triglyceride ±S.E. (male rats of SD line) [mg/dL]	Blood Pressure ±S.E. Average (male rats of SHR line) [mmHg]	Blood Pressure ±S.E. Maximum (male rats of SHR line) [mmHg]	solubility in H₂O (Qualitative solubility)	Plasma Clotting Time ± S.E. [1] [s]
C[C@H](CC[C@H]1OC[C@H]1CO)[C@H]1CC[C@H]2[C@@H]3[C@H](O)C[C@@H]4C[C@H](O)CC[C@]4(C)[C@H]3C[C@H](O)[C@]12C [Example 4, (24R)-(25R)-(+)-24,26-epoxy-5β-cholestane-3α,7α,12α,27-tetrol]	138 ± 9	428 ± 49	92 ± 45	153 ± 2.8	205 ± 7.8	insol in H₂O	
C[C@H](CC[C@@H](O)C1COC1)[C@H]1CC[C@H]2[C@@H]3[C@H](O)C[C@@H]4C[C@H](O)CC[C@]4(C)[C@H]3C[C@H](O)[C@]12C [Example 5, (24R)-(+)-26,27-epoxy-5β-cholestane-3α,7α,12α,24-tetrol]	141 ± 13	405 ± 99	91 ± 33	148 ± 3.5	181 ± 3.5	insol in H₂O	
C[C@H](CC[C@H](O)CCO)[C@H]1CC[C@H]2[C@@H]3[C@H](O)C[C@@H]4C[C@H](O)CC[C@]4(C)[C@H]3C[C@H](O)[C@]12C [Illustrative Example 3, 27-nor-(24S)-(+)-3α,7α,12α,24,26-pentahydroxy-5β-cholestane]	158 ± 12	428 ± 68	105 ± 40	141 ± 3.2	199 ± 2.6		213 ± 5.5
